Experimental data: ChEMBL document CHEMBL2203034, “A new approach to explore the binding space of polysaccharide-based ligands: selectin antagonists” (ACS Med Chem Lett, 2012)

Assays:
[1] = biological target: T1, P-selectin (Homo sapiens) (UniProt P16109); assay: Ratio of compound IC50 to sialyl Lewisx IC50 for solube P-selectin by surface plasmon resonance competitive binding assay
T1 sequence (whole entry): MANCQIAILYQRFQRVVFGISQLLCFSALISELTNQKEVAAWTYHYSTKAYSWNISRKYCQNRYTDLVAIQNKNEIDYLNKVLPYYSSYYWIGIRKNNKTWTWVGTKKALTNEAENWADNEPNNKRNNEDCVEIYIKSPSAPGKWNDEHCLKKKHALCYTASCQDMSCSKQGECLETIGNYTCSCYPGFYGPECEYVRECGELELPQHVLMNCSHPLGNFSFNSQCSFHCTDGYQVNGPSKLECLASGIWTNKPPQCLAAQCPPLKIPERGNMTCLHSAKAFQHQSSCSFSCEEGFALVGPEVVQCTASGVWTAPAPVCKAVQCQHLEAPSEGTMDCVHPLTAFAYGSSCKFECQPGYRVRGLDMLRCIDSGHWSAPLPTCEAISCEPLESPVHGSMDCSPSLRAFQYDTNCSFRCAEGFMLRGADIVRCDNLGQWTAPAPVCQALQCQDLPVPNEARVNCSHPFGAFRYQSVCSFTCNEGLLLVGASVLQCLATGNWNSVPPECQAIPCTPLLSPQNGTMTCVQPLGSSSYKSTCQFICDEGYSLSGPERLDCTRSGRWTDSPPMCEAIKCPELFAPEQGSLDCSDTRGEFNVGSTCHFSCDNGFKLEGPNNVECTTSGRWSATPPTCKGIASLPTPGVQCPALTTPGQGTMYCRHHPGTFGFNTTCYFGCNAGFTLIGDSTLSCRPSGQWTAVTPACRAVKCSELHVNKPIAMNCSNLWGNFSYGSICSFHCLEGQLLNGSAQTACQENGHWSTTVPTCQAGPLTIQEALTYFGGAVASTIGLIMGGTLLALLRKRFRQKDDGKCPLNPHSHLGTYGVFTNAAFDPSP

[2] = biological target: T2, P-selectin (Homo sapiens, UniProt P16109); assay: Inhibition of immobilized rhPSGL-Ig binding to soluble P-selectin by surface plasmon resonance competitive binding assay
T2 sequence (P16109 whole entry): T1 sequence (whole entry)

Row | Ratio IC50 [1] | IC50 [2] | SMILES
1 | 0.75 | 880 µM | COC(=O)[C@H](O[C@@H]1O[C@@H](C)[C@@H](O)[C@@H](O)[C@@H]1O)[C@@H](O[C@@H]1O[C@H](CO)[C@H](O)[C@H](O[C@H](Cc2ccccc2)C(=O)O)[C@H]1O)C(=O)OC
2 | 37 | 18 µM | COC(=O)[C@H](O[C@@H]1O[C@@H](C)[C@@H](O)[C@@H](O)[C@@H]1O)[C@@H](O[C@@H]1O[C@H](CO)[C@H](OC(=O)c2ccccc2)[C@H](O[C@H](Cc2ccccc2)C(=O)O)[C@H]1O)C(=O)OC
3 | – | > 1000 µM | COC(=O)[C@H](O[C@@H]1O[C@@H](C)[C@@H](O)[C@@H](O)[C@@H]1O)[C@@H](O[C@@H]1O[C@H](CO)[C@H](OC(=O)c2cccc3ccccc23)[C@H](O[C@H](Cc2ccccc2)C(=O)O)[C@H]1O)C(=O)OC
4 | – | > 1000 µM | COC(=O)[C@H](O[C@@H]1O[C@@H](C)[C@@H](O)[C@@H](O)[C@@H]1O)[C@@H](O[C@@H]1O[C@H](CO)[C@H](O)[C@H](OCC(=O)O)[C@H]1O)C(=O)OC
